Legend:
[1] = test system: Jurkat cells; test: Apoptosis by Annexin V-FITC PI double staining, Jurkat; assay type: cell-based, human; settings: for apoptosis of siRNA-transfected Jurkat cells induced by dexamethasone: compared to the dexamethasone group, FIG. 5H; for apoptosis of Jurkat cells, inhibitor in combination with dexamethasone: compared to the only/single dexamethasone group, FIG. 2F, 4J
Protocol: (§1) Apoptosis was detected by Annexin V-FITC PI double staining method (flow cytometry kit (FITC, PI double staining), Sangon Biotech (Shanghai) Co., Ltd.)), and the collected cells were washed once with phosphate buffered saline (PBS) (135 mM NaCl, 2.7 mM KCl, 1.5 mM KH2PO4 and 8 mM K2HPO4, pH 7.2); the 4× binding buffer was diluted to a 1× binding buffer with deionized water, then the cells were resuspended with 195 ul of the 1× binding buffer at a cell density of 2-5×10^5/ml; 5 μl of Annexin V-FITC was added to the 195 μl of the cell resuspension and mixed, and incubated in dark at room temperature for 10 minutes; the cells were washed once with 200 μl of the 1× binding buffer, and then resuspended in 190 μl of the 1× binding buffer; 10 μl of propidium iodide (20 μg/ml) was added. A flow cytometry device (Beckman company) was used for detection, and the rate of apoptosis was analyzed using Summit software.
(§2) The cells were cultured in RPMI 1640 complete medium (Gibco company) containing 10% fetal bovine serum (FBS, Gibco company) in an incubator (Thermo company) at 5% CO2 and 37° C. until reaching logarithmic growth phase, then different concentrations of inhibitors and/or dexamethasone/ethanol/DMSO were added to the culture medium, followed by further culturing (for addition of dexamethasone/ethanol/DMSO, for 48 hours, and for addition of inhibitor, for 24 hours), and apoptosis was detected by Annexin V-FITC PI double staining and proteins were detected by Western blot, as described in Example 1.
(§3) As described in Example 3, the cells were cultured in RPMI 1640 complete medium containing 10% fetal bovine serum under 5% CO2 and 37° C. until reaching logarithmic growth phase, and then dexamethasone and different concentrations of Akt inhibitor were added to the culture medium, followed by further culture (for addition of dexamethasone/DMSO, for 48 hours, and for addition of the inhibitor, for 24 hours), the apoptosis was detected by Annexin V-FITC PI double staining method and proteins were detected by Western blot as described in Example 1 as well as the cell viability was detected by CCK-8 method.
The transfected cells were selected and passaged for 3 to 5 passages after resuscitation, with Interferin™ as transfection reagent, and the transfection procedure was performed in accordance with the instruction of the transfection reagent. In short, the cells of logarithmic growth phase were plated at 2×10^5/well, the cells were replaced with fresh complete medium (free of antibiotics) during transfection, siRNA was diluted with Opti-MEM and added with an appropriate amount of […]in™ and mixed, incubated at room temperature for 10 minutes prior to being added dropwise to the cells, and the cells were harvested at appropriate time. The cells were transfected with green fluorescein-labeled siRNA (FAM-siRNA) (siRNA at a final concentration of 20 μM, 1.25 μl/well), and the transfection efficiency was observed using a fluorescence microscope 24 hours later. The dexamethasone group was added 24 hours after transfection, followed by culture for further 24 hours, and then the cells were collected for observation; and the equal amount of anhydrous ethanol was added to the control group.

[2] = test system: Akt/FoxO3a/Bim proteins in L-02 cells; test: Western blot of Akt/FoxO3a/Bim proteins in L-02 cells; assay type: cell-based, human; settings: pretreated with inhibitor 0.8 μM; FIG. 6B
Protocol: Protein detection by Western blot: in the examples of the present invention, Akt antibody (rabbit derived), phosphorylated Akt antibody (rabbit derived), FoxO3a antibody (rabbit derived), phosphorylated FoxO3a antibody (rabbit derived) and GAPDH antibody (rabbit derived) and secondary antibodies were all purchased from CST company. […] An appropriate amount of developing solution (DAB 4 mg, 30% hydrogen peroxide 15 μL, 0.01 M Tris-Cl (pH 7.5) 5 mL) was dropped on the PVDF membrane, the image was detected using a bioluminescence image colorimeter and a gel imaging system (Thermo company), and the quantitative analysis of bands was performed using Image Lab software.

[3] = test system: L-02 human-derived healthy liver cell line; test: CCK-8 viability of healthy liver cells L-02; settings: FIG. 6A; for damage to liver cells: DEX 0.1 μM, inhibitors 0.8 μM
[4] = test system: Daudi cells; test: Apoptosis by Annexin V-FITC PI double staining, Daudi; assay type: cell-based, human; settings: compared to the dexamethasone group; FIG. 2K, 4L
Protocol: as §1
as §2, with “1. […]” for “1.”

[5] = test system: Daudi cells; test: Cell viability by CCK-8 and combination index, Daudi; assay type: cell-based, human; settings: B lymphoma cells; as shown in Table 1
Protocol: as §3
The inhibitory effect of two drugs (dexamethasone and an inhibitor) alone and in combination on various lymphocyte lines was observed by CCK-8 method (CCK-8 kit), and then the half-inhibitory concentration of each drug was calculated using the median effect equation, and the combination index (CI) of the two drugs used in combination was calculated using CompuSyn software.
(1) the lymphocytes of logarithmic growth phase were taken and made to a cell suspension of 5×10^4/mL, a blank control group (5 wells), a dexamethasone group (3 wells for each concentration, triplicates), a single inhibitor group (3 wells for each concentration, triplicates), a dexamethasone plus inhibitor group (3 wells for each combined concentration, triplicates) were prepared, 180 μL of the suspension was seeded to each well of a 96-well plate, and incubated for 24 hours in an incubator at 5% CO2 and 37° C.
Based on the drug resistance of cells, the ratio of two drugs was fixed. The dexamethasone group was cultured for 48 hours while the inhibitor group was cultured for 24 hours.
(3) 10 μl of CCK-8 was added to each well, and cultured for 2 hours, and the optical density (OD) was measured at 450 nm using an automatic microplate reader, and the proliferation inhibition rate of the drug on cell was calculated.
(4) the proliferation inhibition rate was calculated according to the following equation: cell proliferation inhibition rate=(1-average OD value in the test group/average OD value in the control group)×100%, and the effect of interaction between the two drugs was analyzed by Chou-Talalay combination index method.

[6] = Toxicity in tumor-bearing nude mice (peripheral blood test, organ pathology)
[7] = test system: Akt/FoxO3a/Bim signaling pathway in CCRF-CEM cells; test: Western blot of Akt/FoxO3a/Bim signaling pathway proteins in CCRF-CEM cells; assay type: cell-based, human; settings: CCRF-CEM; inhibitors 0.8 μM; FIG. 5A
Protocol: The control group was not added with any reagents. All experiments were performed in triplicate.
Protein detection by Western blot: in the examples of the present invention, Akt antibody (rabbit derived), phosphorylated Akt antibody (rabbit derived), FoxO3a antibody (rabbit derived), phosphorylated FoxO3a antibody (rabbit derived) and GAPDH antibody (rabbit derived) and secondary antibodies were all purchased from CST company. The cells were collected in a centrifuge tube and centrifuged at 1000 rpm, the supernatant was discarded and the cells were washed twice with PBS pre-cold at 4° C.; cell lysis buffer (150 mM NaCl, 1% NP-40, 0.1% SDS, 2 μg/ml Aprotinin, 2 μg/ml Leupeptin, 1 mM PMSF, 1.5 mM EDTA, 1 mM sodium vanadate) was added and the cells were lysed on ice for 40 minutes, the cell lysate was centrifuged at 20000 rpm, 4° C. for 15 minutes, and the supernatant was collected; a protein loading buffer for sodium dodecyl sulfate polyacrylamide (SDS-PAGE) gel electrophoresis (1.25 mL 1MTris-HCl (pH6.8), 0.5 g SDS, 25 mg BPB, 2.5 mL glycerol, 5 mL deionized water) was added, followed by boiling for 5 minutes to denature proteins; the loading buffer containing denatured proteins was applied to 10% SDS-PAGE for electrophoresis at 120 V, and then transferred to a PVDF membrane (Sangon Biotech (Shanghai) Co., Ltd.) at 130 V for 1.5 hours; after the membrane transfer was completed, the PVDF membrane was immediately rinsed with a Western washing solution (150 mmol/L NaCl, 50 mmol/L Tris-HCl (pH 7.5)) for 1-2 minutes; added with 5% non-fat milk powder (Shanghai Biotechnology Co., Ltd.), agitated gently and then blocked at room temperature for 60 minutes; a primary antibody diluted appropriately with 5% non-fat milk powder was added, and incubated overnight at room temperature with gentle agitating; the primary antibody was recovered and the membrane was washed three times with the washing solution for 5-10 minutes each; a horseradish peroxidase-labeled secondary antibody diluted appropriately with the Western washing solution was added, and incubated at room temperature for 1 hour with gentle agitating; the secondary antibody was recovered and the membrane was washed three times with the Western washing solution for 5-10 minutes each. An appropriate amount of developing solution (DAB 4 mg, 30% hydrogen peroxide 15 μL, 0.01 M Tris-Cl (pH 7.5) 5 mL) was dropped on the PVDF membrane, the image was detected using a bioluminescence image colorimeter and a gel imaging system (Thermo company), and the quantitative analysis of bands was performed using Image Lab software.
as §2
Methods: CCRF-CEM cells were cultured in RPMI 1640 complete medium (Gibco company) containing 10% fetal bovine serum (FBS, Gibco company) in an incubator (Thermo company) at 5% CO2 and 37° C. until reaching logarithmic growth phase, then DMSO, dexamethasone and different inhibitors (DMSO: 0.1%, dexamethasone: 0.1 μM, inhibitors: 0.8 μM) were added to the culture medium, and further cultured (for addition of dexamethasone or DMSO, for 48 hours, and for addition of inhibitors, for 24 hours), and the proteins were detected by Western blot, as described in Example 1.

Compound | apoptosis of siRNA-transfected Jurkat cells induced by dexamethasone [1] | expressions of p-Akt1 and p-Akt2 in L-02 cells [2] | damage to liver cells [3] | recovery of liver cell activity [3] | apoptosis of Daudi cells, inhibitor in combination with dexamethasone [4] | effect of inhibitor in combination with dexamethasone in B lymphoma cells (in words) [5] | apoptosis of Jurkat cells, inhibitor in combination with dexamethasone [1] | liver pathology (HE staining) ([6]; 7-day administration, FIG. 8A, 8B) | level of TBIL ([6]; compared to the NC group, FIG. 6I) | level of peripheral blood AST ([6]; compared to the normal saline group (NC), FIG. 3F, 6H) | expression of p-Akt1 [7] | expression of p-Akt2 [7] | liver cell activity ([3]; after six hours of administration) [%]
Akt1 siRNA: siRNA, SEQ ID NO: 5 GGCCCAACACCUUCAUCAUTT and SEQ ID NO: 6 AUGAUGAAGGUGUUGGGCCTT (chain 1 GGCCCAACACCUUCAUCAUNN; chain 2 AUGAUGAAGGUGUUGGGCCNN; listed as RNA, chemistry not given here) | not increased | – | – | – | – | – | – | – | – | – | – | – | –
Cc1[nH]nc2ccc(-c3cncc(OC[C@@H](N)Cc4ccccc4)c3)cc12 [A-674563] | – | correspondingly increased | most serious damage | did not recover within 48-hour | significantly increase | low degree of synergistic effect | significantly increase | did not cause morphological changes of the liver tissues | significantly increased | significantly increased | effectively inhibited | compensatory increase | –
NC1(Cc2ccc(Cl)cc2)CCN(c2ncnc3[nH]ccc23)CC1 [CCT128930] | – | correspondingly increased | least damage | gradually recovered after 6 hours of administration | significantly increase | additive effect | significantly increase | – | – | – | increased | increased | 56.1
Akt2 siRNA: siRNA, SEQ ID NO: 7 GGUUCUUCCUCAGCAUCAATT and SEQ ID NO: 8 UUGAUGCUGAGGAAGAACCTT (chain 1 GGUUCUUCCUCAGCAUCAANN; chain 2 UUGAUGCUGAGGAAGAACCNN; listed as RNA, chemistry not given here) | significantly increased | – | – | – | – | – | – | – | – | – | – | – | –
